Reference: patent publication US20260317319A1, “NOVEL ERGOLINES AND METHODS OF TREATING MOOD DISORDERS” (Gilgamesh Pharma Inc., priority 2023, published 2026)

What was measured:
[1] = molecular target: T1, 5-HT2C receptor (Homo sapiens, UniProt P28335); test: Ca2+ flux functional assay at 5-HT2C (WuXi 5-HT2C protocol); assay type: cell-based; set-up: expressed in transfected cells; conditions: for Emax: agonist, tested using WuXi 5-HT2C protocol, max dose, read-out: 5-HT2C % Act @ Max Dose (* WuXi protocol)
T1 sequence (P28335 33-458): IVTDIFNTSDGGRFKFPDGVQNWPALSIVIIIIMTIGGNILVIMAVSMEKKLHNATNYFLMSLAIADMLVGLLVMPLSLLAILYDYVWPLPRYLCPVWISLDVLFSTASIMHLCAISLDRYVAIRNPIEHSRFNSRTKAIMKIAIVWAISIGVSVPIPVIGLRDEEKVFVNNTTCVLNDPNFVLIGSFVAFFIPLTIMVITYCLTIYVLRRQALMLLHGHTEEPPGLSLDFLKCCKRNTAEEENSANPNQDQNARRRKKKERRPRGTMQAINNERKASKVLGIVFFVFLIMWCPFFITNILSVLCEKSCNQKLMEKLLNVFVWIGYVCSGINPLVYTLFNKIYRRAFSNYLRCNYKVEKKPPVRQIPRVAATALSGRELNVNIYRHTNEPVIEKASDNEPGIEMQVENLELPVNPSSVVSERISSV
Description: Disclosed compounds were tested for agonist activity at several serotonin receptor subtypes (5-HT2A, […], 5-HT2C, and 5-HT1A) using Ca^2+ flux functional assays and the 5-HT1B receptor using a cAMP accumulation assay, with the results summarized in Table 4. […] Potent agonist activity was also observed at the other serotonin receptors tested, although the selectivity profile among the receptors varied across compounds. […] However, at the same time, the N-propyl compounds were more efficacious agonists at 5-HT2B than the corresponding N-methyl compounds. The selectivity of disclosed compounds for 5-HT2A over 5-HT2C and 5-HT1A was less predictable and varied widely across compounds. […] An azetidinyl amide substituent tended to increase potency at 5-HT1A relative to 5-HT2A.
Functional Assays at 5-HT2A, 5-HT2B, and 5-HT1A. Agonist activity at 5-HT2A, 5-HT2B, 5HT2C and 5-HT1A receptors was determined using a FLIPR Ca^2+ flux assay at WuXi AppTec (Hong Kong) Limited according to their standard protocols. Briefly, stably transfected cells expressing the receptor of interest and Gα15 in the case of 5-HT1A (HEK293 for 5-HT2A and 5-HT2B; CHO cells for 5-HT1A) were grown and plated in a 384 well plate and incubated at 37° C. and 5% CO2 overnight. A solution of 250 mM probenecid in 1 mL FLIPR assay buffer was prepared fresh. This was combined with a fluorescent dye (Fluo-4 Direct™) to make a final assay concentration of 2.5 mM. Compounds were diluted 1:3.16 for 10 points and 750 nL was added to a 384 well compound plate using ECHO along with 30 μL assay buffer. The fluorescent dye was then added to the assay plate along with assay buffer to a final volume of 40 μL. The cell plate was incubated for 50 min at 37° C. and 5% CO2 and placed into the FLIPR Tetra along with the compound plate. 10 μL of references and compounds were then transferred from the compound plate into the cell plate and the fluorescent signal was read.

[2] = system: C57BL/6 mice; test: Automated mouse head twitch response (HTR) assay (video tracking); assay type: in vivo; conditions: sc; for # HTR/20 min at Most Efficacious Dose: 20 min recording, at each compound's most efficacious dose (35*, 43*, 44*: suppressed below vehicle 14.5, dose is that of least suppression); for # HTR/20 min at Most Efficacious Dose / Peak HTR/min at Most Efficacious Dose: mean; for Most Efficacious Dose for Peak HTR/min: dose giving highest peak HTR/min (35*, 43*, 44*: dose that resulted in the least suppression); for Most Efficacious Dose for # HTR/20 min: dose giving most HTR/20 min (35*, 43*, 44*: dose that resulted in the least suppression); for Peak HTR/min at Most Efficacious Dose: rate over 2-min bins, at each compound's most efficacious dose (35*, 43*, 44*: suppressed below vehicle 1.62, dose is that of least suppression)
Description: Disclosed compounds were tested for their ability to induce a head twitch response (HTR) in mice using an automated video tracking procedure, with the results summarized in Table 8 and FIG. 4.
Animals. Adult male C57BL/6 mice aged 8-10 weeks (Jackson Labs, Bar Harbor, ME; body weight 18-25 g) were used in this experiment. Animals were group housed under environmentally controlled temperatures and 12-hour light/dark cycles (lights on between 06:00-18:00 h), with ad libitum food and water. Mice were habituated to the facility for at least 5 days prior to testing. All animal procedures were approved by the local IACUC and conducted in accordance with the NIH Guide for the Care and Use of Laboratory Animals.
Procedure. Mice were administered one dose of the drug and immediately placed into a small open field for behavioral observation. High-speed video of animals' behavior was captured continuously for 20 min. Video recordings were imported into an image processing software, which detects multiple points of interest on each animal's body, including the left and right ear. HTR events were defined as periodic deviations of ear locations from temporally averaged ear locations. Predefined thresholds for magnitude and frequency of location deviations were used to filter HTR events from random head movements. The method was validated by comparing detected events with manual (human) observations and found to have an accuracy >95%. The total number of HTR events counted during the 20-min recording and the rate in HTR/min calculated over 2-min bins were determined for each animal at each dose.
Statistical Analysis. The data points shown are the mean±standard error of the mean (SEM).

SMILES	EC50 [1] [µM]	Emax [1] [%]	# HTR/20 min at Most Efficacious Dose [2] [HTR/20 min]	Most Efficacious Dose for Peak HTR/min [2]	Most Efficacious Dose for # HTR/20 min [2]	Peak HTR/min at Most Efficacious Dose [2] [HTR/min]
CCN(CC)C(=O)[C@@H]1C=C2c3cccc4[nH]cc(c34)C[C@H]2N(Cc2ccon2)C1 [Compound 70, (6aR,9R)—N,N-diethyl-7-(isoxazol-3-ylmethyl)-4,6,6a,7,8,9-hexahydroindolo[4,3-fg]quinoline-9-carboxamide]	> 10	23.9	–	–	–	–
CCN(CC)C(=O)[C@@H]1C=C2c3cccc4[nH]cc(c34)C[C@H]2N(Cc2cccc(C#N)c2)C1 [Compound 76, (6aR,9R)—N,N-diethyl-7-(3-cyanobenzyl)-4,6,6a,7,8,9-hexahydroindolo[4,3-fg]quinoline-9-carboxamide]	> 10	0.14	–	–	–	–
CCN(C)C(=O)[C@@H]1C=C2c3cccc4[nH]cc(c34)C[C@H]2N(Cc2ccccc2)C1 [Compound 85, (6aR,9R)-7-benzyl-N-ethyl-N-methyl-4,6,6a,7,8,9-hexahydroindolo[4,3-fg]quinoline-9-carboxamide]	> 10	16.3	6.625	(0.32) mg/kg, sc	(0.32) mg/kg, sc	0.33
CCN(CC)C(=O)[C@@H]1C=C2c3cccc4[nH]cc(c34)C[C@H]2N(Cc2cocn2)C1 [Compound 73, (6aR,9R)—N,N-diethyl-7-(oxazol-4-ylmethyl)-4,6,6a,7,8,9-hexahydroindolo[4,3-fg]quinoline-9-carboxamide]	1.72	74	–	–	–	–
CCN(CC)C(=O)[C@@H]1C=C2c3cccc4[nH]cc(c34)C[C@H]2N(Cc2cccc(O)c2)C1 [Compound 62, (6aR,9R)—N,N-diethyl-7-(3-hydroxybenzyl)-4,6,6a,7,8,9-hexahydroindolo[4,3-fg]quinoline-9-carboxamide]	> 10	20.3	–	–	–	–
CCN(CC)C(=O)[C@@H]1C=C2c3cccc4[nH]cc(c34)C[C@H]2N(Cc2ccc(Cl)cc2)C1 [Compound 50, (6aR,9R)-7-(4-chlorobenzyl)-N,N-diethyl-4,6,6a,7,8,9-hexahydroindolo[4,3-fg]quinoline-9-carboxamide]	> 10	1.08	–	–	–	–
CCN(CC)C(=O)[C@@H]1C=C2c3cccc4[nH]cc(c34)C[C@H]2N(Cc2ccccc2)C1 [Compound 82, (6aR,9R)-7-benzyl-N,N-diethyl-4,6,6a,7,8,9-hexahydroindolo[4,3-fg]quinoline-9-carboxamide]	> 10	15.6	11.25	(0.1) mg/kg, sc	(0.1) mg/kg, sc	0.56
CCN(CC)C(=O)[C@@H]1C=C2c3cccc4[nH]cc(c34)C[C@H]2N(Cc2ccc(F)cc2)C1 [Compound 49, (6aR,9R)—N,N-diethyl-7-(4-fluorobenzyl)-4,6,6a,7,8,9-hexahydroindolo[4,3-fg]quinoline-9-carboxamide]	> 10	1.32	–	–	–	–
